Test results: PMC12670164, “In vitro and clinical data demonstrate negligible risk of drug–drug interactions with opelconazole, a novel inhaled antifungal agent” (Journal of Antimicrobial Chemotherapy, 2025)
Where “and” joins values, the source holds several entries; their conditions need not be identical. Equal entries are not always repeated. Where two headings read alike, the source gives them in different places.

Experiments:
OAT1 = target: T1, OAT1 (Homo sapiens, UniProt Q4U2R8); assay: Transporter inhibition; type: in vitro ADME; settings: 0.5 and 5 μM tested
T1 construct: expressed in transfected cells
T1 sequence (Q4U2R8 1-563): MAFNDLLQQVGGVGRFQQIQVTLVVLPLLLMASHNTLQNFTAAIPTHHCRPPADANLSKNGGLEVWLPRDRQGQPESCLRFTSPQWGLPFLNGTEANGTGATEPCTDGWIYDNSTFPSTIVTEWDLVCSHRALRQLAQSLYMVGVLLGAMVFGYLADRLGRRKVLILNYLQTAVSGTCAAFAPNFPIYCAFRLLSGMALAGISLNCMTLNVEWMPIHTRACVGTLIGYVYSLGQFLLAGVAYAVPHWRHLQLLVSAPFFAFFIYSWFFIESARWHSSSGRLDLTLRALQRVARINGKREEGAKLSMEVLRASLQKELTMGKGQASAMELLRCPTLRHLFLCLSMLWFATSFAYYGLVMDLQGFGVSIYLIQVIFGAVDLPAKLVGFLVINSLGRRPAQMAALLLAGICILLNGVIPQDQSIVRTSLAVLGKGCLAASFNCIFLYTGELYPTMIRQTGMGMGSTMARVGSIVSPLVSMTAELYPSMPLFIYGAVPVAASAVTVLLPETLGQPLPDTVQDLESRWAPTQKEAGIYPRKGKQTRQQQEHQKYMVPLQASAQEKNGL
Description: (§1) Human transporter protein interactions with opelconazole as a potential substrate and/or inhibitor were assessed for the following key carrier transporters: organic anion transporters, OAT1 and OAT3; organic cation transporters, OCT1 and OCT2; OATP1B1 and OATP1B3; multidrug and toxin extrusion, MATE-1 and MATE2-K; key ATP-binding cassette (ABC) transporters including P-gp, breast cancer resistance protein (BCRP) and bile salt export pump (BSEP). Two concentrations of opelconazole, 0.5 and 5 μM, were tested using MDCKII cells, human embryonic kidney 293 cells and BSEP-transfected sf9 membrane vesicles and then analysed by LC-tandem MS to determine transporter inhibition and whether opelconazole was a transporter substrate. The viability of experimental test systems was confirmed with controls and known probe substrates and probe inhibitors.

MATE2-K = target: T2, MATE2-K (Homo sapiens, UniProt Q86VL8); assay: Transporter inhibition; type: in vitro ADME
T2 construct: expressed in transfected cells
T2 sequence (Q86VL8 1-566 isoform Q86VL8-3): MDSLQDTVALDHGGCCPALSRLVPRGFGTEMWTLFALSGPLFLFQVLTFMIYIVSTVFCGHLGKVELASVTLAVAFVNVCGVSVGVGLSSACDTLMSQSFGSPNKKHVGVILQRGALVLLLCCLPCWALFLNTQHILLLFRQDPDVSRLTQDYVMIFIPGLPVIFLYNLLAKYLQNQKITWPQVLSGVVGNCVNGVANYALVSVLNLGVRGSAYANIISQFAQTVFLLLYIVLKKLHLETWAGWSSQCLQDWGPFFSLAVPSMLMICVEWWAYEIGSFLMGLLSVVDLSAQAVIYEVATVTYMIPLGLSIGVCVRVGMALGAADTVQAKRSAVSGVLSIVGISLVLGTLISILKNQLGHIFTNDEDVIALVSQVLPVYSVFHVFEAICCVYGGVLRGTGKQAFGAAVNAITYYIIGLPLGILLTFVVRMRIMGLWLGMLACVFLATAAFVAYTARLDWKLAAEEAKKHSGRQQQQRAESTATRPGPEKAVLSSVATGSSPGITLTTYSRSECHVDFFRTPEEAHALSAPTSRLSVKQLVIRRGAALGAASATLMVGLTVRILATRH
Description: as §1

CYP isoforms = assay: Initial CYP inhibition study in human liver microsomes; type: in vitro ADME; settings: opelconazole 0.03 to 5 μM
Description: The potential for opelconazole to inhibit CYP isoforms was tested in vitro in human liver microsomes. […] Preincubation of the human liver microsomes for periods of 0 min without NADPH and 30 min with NADPH, plus 30 min without NADPH were included to assess for a time-dependent inhibition effect. Two structurally diverse substrates (testosterone and midazolam) were tested to assess substrate-dependent inhibition.

[1] = Phase 1 study: plasma pharmacokinetics of inhaled opelconazole in healthy volunteers; type: in vivo, human
Description: The study was conducted from February 2023 through June 2023 in accordance with the Declaration of Helsinki, Good Clinical Practice, and the International Conference on Harmonisation guidelines (South African National Clinical Trial Registry code: DOH-27-122022-5196). The study documents were approved by an Independent Ethics Committee. Study participants provided written informed consent prior to any study procedures.
Screening occurred within 28 days prior to the first dosing day (Figure 1). Participants were admitted to the study centre on Day −1 and were required to stay there until approximately 48 h after the morning dosing on Day 15. They returned for subsequent PK blood samples at approximately 72 (Day 18), 168 (Day 22) and 336 h (Day 29) after the last morning dosing. On Days 1 and 15, participants received oral midazolam 7.5 mg and oral caffeine 180 mg together after food ingestion.
Standard doses of midazolam and caffeine were used to characterize their PK profiles. The dose selected for opelconazole, 14.8 mg twice daily, is the dose utilized in the clinical development programme for the treatment and prevention of invasive pulmonary aspergillosis (IPA). Following 14 days of twice daily dosing, plasma concentrations were expected to be within 80% of steady-state concentrations and deemed appropriate to assess potential interactions with the probe substrates.
Study participants inhaled opelconazole 14.8 mg twice daily using the PARI LC SPRINT® jet nebuliser for 14 days, starting on Day 2 through Day 15. Morning doses of opelconazole on Day 2 and Day 15 were taken 30 min after food ingestion. Blood samples were taken for PK analyses for midazolam, metabolites of midazolam (1-OH-midazolam and 4-OH-midazolam) and caffeine on Days 1 and 15 at pre-dose (0 h), at 0.5, 1, 1.5, 2, 3, 4, 6, 8, 10, 12, 16, 24, 30, 36 and 48 h post-dose on Days 1 and 15. Blood samples were taken for PK analyses for opelconazole as follows: on Day 2 at pre-morning dose (0 h), at 0.5, 1, 2, 4, 6, 8, 12 and 24 h post-morning dose; on Day 15: at pre-morning-dose (0 h), at 0.5, 1, 2, 4, 6, 8, 10, 12, 24 (Day 16), 30 (Day 16), 36 (Day 16), 48 (Day 17), 72 (Day 18), 168 (Day 22) and 336 (Day 29) h post-morning-dosing.
Primary PK parameters assessed for midazolam and its metabolites (1-OH-midazolam, 4-OH-midazolam), caffeine and opelconazole were Cmax and AUC, from time zero to t, where t is the time of the last quantifiable concentration (AUC(0−t); i.e., AUC(0−12) and AUC(0−24)). Secondary PK parameters were AUC(0−∞), Tmax, apparent t1/2 and accumulation ratio (RO) of opelconazole only.

[2] = parameters: method as in PMID 33340279; settings: available PK data, cited from earlier work
CYP1A2 = assay: CYP induction, mRNA endpoint, cryopreserved human hepatocytes; settings: for CYP1A2 mRNA increase: concentration-dependent, 72 h
Description: The potential for opelconazole to act as an inducer of CYP isoforms CYP1A2, CYP2B6 and CYP3A4 was assessed in vitro using an mRNA endpoint across three donors in cryopreserved human hepatocytes. A drug is interpreted as an inducer if: (1) it increases mRNA expression of a CYP enzyme in a concentration-dependent manner and (2) the fold change of CYP mRNA expression relative to vehicle control is ≥2-fold at the drug’s expected hepatic concentrations.[23]
A cytotoxicity assessment using MTT was performed in one of the three donors used for the induction studies prior to dosing.

[3] = Day 2, inhaled 14.8 mg twice daily
[4] = Day 15, after 14 days inhaled 14.8 mg twice daily

With `Cc1cc(N2CCN(c3ccc(C(=O)Nc4ccc(F)cc4)cc3)CC2)ccc1OC[C@@H]1CO[C@@](Cn2cncn2)(c2ccc(F)cc2F)C1` [opelconazole] the “inhibitory interaction with OAT1” value (OAT1) was “negligible inhibitory interactions”, the “inhibition of MATE2-K relative to solvent control” value (MATE2-K; 0.5 μM opelconazole) was 19% and the “inhibition of MATE2-K relative to solvent control” value (MATE2-K; 5 μM opelconazole) was 52%. For the same compound, the “CYP inhibition, initial study” value (CYP isoforms) was “limited to CYP3A4”, the “AUC(0–12 h), geometric mean (CV%)” value ([1]; Day 2 (first dosing day), inhaled 14.8 mg twice daily) was 7.81 (27.8) h·ng/mL and the “AUC(0-t), geometric mean (CV%)” value [1, 3] was 19.9 (29.4) h·ng/mL. For the same compound, the “AUC(0–24 h), geometric mean (CV%)” value [1, 3] was 19.6 (29.4) h·ng/mL, the “Cmax, geometric mean (CV%)” value [1, 3] was 0.91 (29.3) ng/mL and the “Tmax, median (range)” value [1, 3] was 6.17 (2.17, 12.1) h. The “AUC(0-t), geometric mean (CV%)” value [1, 4] was 1270 (45.8) h·ng/mL, the “AUC(0–12 h), geometric mean (CV%)” value [1, 4] was 69.8 (45.4) h·ng/mL and the “AUC(0–24 h), geometric mean (CV%)” value [1, 4] was 136 (46.7) h·ng/mL. The “Cmax, geometric mean (CV%)” value [1, 4] was 7.07 (47.2) ng/mL, the “Tmax, median (range)” value [1, 4] was 4.17 (0.67, 48.0) h and the “t½, geometric mean (CV%)” value [1, 4] was 188 (21.4) h. The “AUC(0−∞), geometric mean (CV%)” value ([1]; Day 15, inhaled 14.8 mg twice daily, n=2) was 1720 (31.2) h·ng/mL, the “RO (accumulation ratio) AUC(0–12 h) Day 15/Day 2, geometric mean (CV%)” value ([1]; inhaled 14.8 mg twice daily) was 8.93 (38.4) and the “RO (accumulation ratio) AUC(0–24 h) Day 15/Day 2, geometric mean (CV%)” value ([1]; inhaled 14.8 mg twice daily) was 6.97 (35.8). For the same compound, the “RO (accumulation ratio) Cmax Day 15/Day 2, geometric mean (CV%)” value ([1]; inhaled 14.8 mg twice daily) was 7.77 (46.7), the “observed RO (Day 15/Day 2) for AUC0–12h” value ([1]; inhaled 14.8 mg twice daily) was 8.9 fold and the “observed RO (Day 15/Day 2) for Cmax” value ([1]; inhaled 14.8 mg twice daily) was 7.8 fold. The Cmax ([1]; multiple inhaled doses, clinical dosing, read-out: systemic Cmax at steady state) was 10 nM and ≤ 10 nM, the “Cmax (low systemic exposure)” value [2] was 1 ng/mL and the Cmax ([2]; read-out: Cmax (low systemic exposure)) was 1.6 nM. The “opelconazole concentration giving threshold induction outcome” value (CYP1A2; CYP1A2, in vitro) was 0.3 μM and 204 ng/mL, the “CYP1A2 mRNA increase” value (CYP1A2; donor 1, opelconazole ≥0.3 μM) was 2.72 fold and the “CYP1A2 mRNA increase” value (CYP1A2; donor 2, opelconazole ≥0.3 μM) was 1.97 fold.
